# Laboratory results taken from patent publication US7138361B2, “Herbicidal heterocycles” (E. I. du Pont de Nemours and Company, priority 2000, dated 2006).
# What was measured:
# Format in all cases: in vivo
# [1] = test system: giant foxtail (Setaria faberii); experiment: Test B preemergence
# How it was run: (§1)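 Pre: seeded pots sprayed, chemical in non-phytotoxic solvent/surfactant mix. Post: plants 2–18 cm, 1–4 leaf, same formulation. Greenhouse 13–15 d; visual % control vs untreated, 0–100 scale.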
# [2] = test system: cocklebur (Xanthium strumarium); experiment: Test B preemergence
# How it was run: as §1
# corn (Zea mays) [3] = experiment: Test B preemergence
# How it was run: as §1
# [4] = test system: lambsquarters (Chenopodium album); experiment: Test B preemergence
# How it was run: as §1
# [5] = test system: Surinam grass (Brachiaria decumbens); experiment: Test B preemergence
# How it was run: as §1
# [6] = test system: morning glory (Ipomoea hederacea); experiment: Test B preemergence
# How it was run: as §1
# [7] = test system: velvetleaf (Abutilon theophrasti); experiment: Test B preemergence
# How it was run: as §1
# rice (Oryza saliva) [8] = experiment: Test B preemergence
# How it was run: as §1
# [9] = test system: crabgrass (Digitaria sanguinalis); experiment: Test B preemergence
# How it was run: as §1
# [10] = test system: pigweed (Amaranthus retroflexus); experiment: Test B preemergence
# How it was run: as §1
# [11] = test system: barnyardgrass (Echinochloa crus-galli); experiment: Test B preemergence
# How it was run: as §1
# [12] = test system: duck salad (Heteranthera limosa); experiment: Test C flooded paddy test; details: for Ducksalad plant response rating: Flooded Paddy, scale 0 to 100, 0 no effect, 100 complete control; for Plant response rating, Ducksalad: flooded paddy test, scale 0 to 100 (0 no effect, 100 complete control)
# How it was run: (§2)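 Plants were grown to the 2-leaf stage under flooded paddy conditions and treated. They were then kept in a greenhouse for 12 to 14 days and visually rated against untreated controls on a 0–100 scale, where 0 is no effect and 100 is complete control.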
# rice (Oryza saliva) [13] = experiment: Test C flooded paddy test; details: for Rice plant response rating: Flooded Paddy, scale 0 to 100, 0 no effect, 100 complete control; for Plant response rating, Rice: flooded paddy test, scale 0 to 100 (0 no effect, 100 complete control)
# How it was run: as §2
# [14] = test system: smallflower flatsedge (Cyperus difformis); experiment: Test C flooded paddy test; details: for Flatsedge plant response rating: Flooded Paddy, scale 0 to 100, 0 no effect, 100 complete control; for Plant response rating, Flatsedge: flooded paddy test, scale 0 to 100 (0 no effect, 100 complete control)
# How it was run: as §2
# [15] = test system: barnyardgrass (Echinochloa crus-galli); experiment: Test C flooded paddy test; details: for Barnyardgrass plant response rating: Flooded Paddy, scale 0 to 100, 0 no effect, 100 complete control; for Plant response rating, Barnyardgrass: flooded paddy test, scale 0 to 100 (0 no effect, 100 complete control)
# How it was run: as §2
# [16] = test system: duck salad (Heteranthera limosa); experiment: Test B flooded paddy test; details: Rate 1000 g/ha, scale of 0 to 100 where 0 is no effect and 100 is complete control, visually evaluated after 13 to 15 days
# How it was run: (§3)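 2-leaf plants, flooded paddy; greenhouse 13–15 d post-treatment; visual rating vs controls, 0–100 scale (0 = no effect, 100 = complete control); dash = no result.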
# rice (Oryza saliva) [17] = experiment: Test B flooded paddy test; details: Rate 1000 g/ha, scale of 0 to 100 where 0 is no effect and 100 is complete control, visually evaluated after 13 to 15 days
# How it was run: as §3
# [18] = test system: smallflower flatsedge (Cyperus difformis); experiment: Test B flooded paddy test; details: Rate 1000 g/ha, scale of 0 to 100 where 0 is no effect and 100 is complete control, visually evaluated after 13 to 15 days
# How it was run: as §3
# [19] = test system: barnyardgrass (Echinochloa crus-galli); experiment: Test B flooded paddy test; details: Rate 1000 g/ha, scale of 0 to 100 where 0 is no effect and 100 is complete control, visually evaluated after 13 to 15 days
# How it was run: as §3
# [20] = test system: blackgrass (Alopecurus myosuroides); experiment: Test B postemergence; details: 13 to 15 days
# How it was run: as §1
# [21] = test system: giant foxtail (Setaria faberii); experiment: Test B postemergence; details: 13 to 15 days
# How it was run: as §1
# [22] = test system: cocklebur (Xanthium strumarium); experiment: Test B postemergence; details: 13 to 15 days
# How it was run: as §1
# corn (Zea mays) [23] = experiment: Test B postemergence; details: 13 to 15 days
# How it was run: as §1
# [24] = test system: wheat (Triticum aestivum); experiment: Test B postemergence; details: 13 to 15 days
# How it was run: as §1
# [25] = test system: lambsquarters (Chenopodium album); experiment: Test B postemergence; details: 13 to 15 days
# How it was run: as §1
# wild oat (Avena fatua) = experiment: Test B postemergence; details: 13 to 15 days
# How it was run: as §1
# [26] = test system: Surinam grass (Brachiaria decumbens); experiment: Test B postemergence; details: 13 to 15 days
# How it was run: as §1
# [27] = test system: morning glory (Ipomoea hederacea); experiment: Test B postemergence; details: 13 to 15 days
# How it was run: as §1
# [28] = test system: velvetleaf (Abutilon theophrasti); experiment: Test B postemergence; details: 13 to 15 days
# How it was run: as §1
# [29] = test system: crabgrass (Digitaria sanguinalis); experiment: Test B postemergence; details: 13 to 15 days
# How it was run: as §1
# [30] = test system: pigweed (Amaranthus retroflexus); experiment: Test B postemergence; details: 13 to 15 days
# How it was run: as §1
# [31] = test system: barnyardgrass (Echinochloa crus-galli); experiment: Test B postemergence; details: 13 to 15 days
# How it was run: as §1
# [32] = Preemergence, Rate 500 g/ha, scale 0 to 100, 0 no effect, 100 complete control
# [33] = preemergence, Rate 125 g/ha, scale of 0 to 100 where 0 is no effect and 100 is complete control, 13 to 15 days
# [34] = Rate 125 g/ha, scale 0 (no effect) to 100 (complete control)
# [35] = Rate 500 g/ha, scale 0 to 100, 0 is no effect, 100 is complete control
# [36] = preemergence, Rate 125 g/ha, scale 0 to 100, 0 no effect, 100 complete control
smiles,measurement,setting,value
CC(C)(C)c1ccn(C2CCN(c3cc(C(F)(F)F)cc(C(F)(F)F)c3)C2=O)n1 (centres unmarked) [Compound 54],"Plant response rating, Foxtail, Giant",[1]; [32],0
same,"Plant response rating, Foxtail, Giant",[1]; [33],0
same,"Plant response rating, Cocklebur",[2]; [32],0
same,"Plant response rating, Cocklebur",[2]; [33],0
same,"Plant response rating, Corn",corn (Zea mays) [3]; [32],0
same,"Plant response rating, Corn",corn (Zea mays) [3]; [33],0
same,"Plant response rating, Lambsquarters",[4]; [32],0
same,"Plant response rating, Lambsquarters",[4]; [33],0
same,"Plant response rating, Surinam grass",[5]; [32],0
same,"Plant response rating, Surinam grass",[5]; [33],0
same,"Plant response rating, Morningglory",[6]; [32],0
same,"Plant response rating, Morningglory",[6]; [33],0
same,"Plant response rating, Velvetleaf",[7]; [32],0
same,"Plant response rating, Velvetleaf",[7]; [33],0
same,"Plant response rating, Rice",rice (Oryza saliva) [8]; [32],0
same,"Plant response rating, Rice",rice (Oryza saliva) [8]; [33],0
same,"Plant response rating, Crabgrass",[9]; [32],0
same,"Plant response rating, Crabgrass",[9]; [33],0
same,"Plant response rating, Pigweed",[10]; [32],0
same,"Plant response rating, Pigweed",[10]; [33],0
same,"Plant response rating, Barnyardgrass",[11]; [32],0
same,"Plant response rating, Barnyardgrass",[11]; [33],0
same,Ducksalad plant response rating,[12]; Rate 250 g/ha,0
same,Ducksalad plant response rating,[12]; Rate 500 g/ha,0
same,"Plant response rating, Ducksalad",[12]; Rate 62 g/ha,0
same,"Plant response rating, Ducksalad",[12]; Rate 125 g/ha,0
same,Rice plant response rating,rice (Oryza saliva) [13]; Rate 250 g/ha,0
same,Rice plant response rating,rice (Oryza saliva) [13]; Rate 500 g/ha,0
same,"Plant response rating, Rice",rice (Oryza saliva) [13]; Rate 62 g/ha,0
same,"Plant response rating, Rice",rice (Oryza saliva) [13]; Rate 125 g/ha,0
same,Flatsedge plant response rating,[14]; Rate 250 g/ha,0
same,Flatsedge plant response rating,[14]; Rate 500 g/ha,80
same,"Plant response rating, Flatsedge",[14]; Rate 62 g/ha,0
same,"Plant response rating, Flatsedge",[14]; Rate 125 g/ha,0
same,Barnyardgrass plant response rating,[15]; Rate 250 g/ha,20
same,Barnyardgrass plant response rating,[15]; Rate 500 g/ha,20
same,"Plant response rating, Barnyardgrass",[15]; Rate 62 g/ha,0
same,"Plant response rating, Barnyardgrass",[15]; Rate 125 g/ha,0
same,"Plant response rating, Ducksalad",[16],30
same,"Plant response rating, Rice",rice (Oryza saliva) [17],0
same,"Plant response rating, Flatsedge",[18],90
same,"Plant response rating, Barnyardgrass",[19],80
same,"Plant response rating, Blackgrass",[20]; [34],0
same,"Plant response rating, Blackgrass",[20]; [35],0
same,"Plant response rating, Foxtail, Giant",[21]; [34],0
same,"Plant response rating, Foxtail, Giant",[21]; [35],0
same,"Plant response rating, Cocklebur",[22]; [34],0
same,"Plant response rating, Cocklebur",[22]; [35],20
same,"Plant response rating, Corn",corn (Zea mays) [23]; [34],0
same,"Plant response rating, Corn",corn (Zea mays) [23]; [35],0
same,"Plant response rating, Wheat",[24]; [34],0
same,"Plant response rating, Wheat",[24]; [35],0
same,"Plant response rating, Lambsquarters",[25]; [34],0
same,"Plant response rating, Lambsquarters",[25]; [35],30
same,"Plant response rating, Wild Oat",wild oat (Avena fatua); [34],0
same,"Plant response rating, Wild Oat",wild oat (Avena fatua); [35],0
same,"Plant response rating, Surinam grass",[26]; [34],0
same,"Plant response rating, Surinam grass",[26]; [35],0
same,"Plant response rating, Morningglory",[27]; [34],0
same,"Plant response rating, Morningglory",[27]; [35],20
same,"Plant response rating, Velvetleaf",[28]; [34],0
same,"Plant response rating, Velvetleaf",[28]; [35],0
same,"Plant response rating, Crabgrass",[29]; [34],0
same,"Plant response rating, Crabgrass",[29]; [35],0
same,"Plant response rating, Pigweed",[30]; [34],0
same,"Plant response rating, Pigweed",[30]; [35],0
same,"Plant response rating, Barnyardgrass",[31]; [34],0
same,"Plant response rating, Barnyardgrass",[31]; [35],0
Cc1ccc(N2CCC(n3ccc(C(C)(C)C)n3)C2=O)cc1Br (centres unmarked) [Compound 35],"Plant response rating, Foxtail, Giant",[1]; [32],0
same,"Plant response rating, Foxtail, Giant",[1]; [36],0
same,"Plant response rating, Cocklebur",[2]; [32],0
same,"Plant response rating, Cocklebur",[2]; [36],0
same,"Plant response rating, Corn",corn (Zea mays) [3]; [32],0
same,"Plant response rating, Corn",corn (Zea mays) [3]; [36],0
same,"Plant response rating, Lambsquarters",[4]; [32],100
same,"Plant response rating, Lambsquarters",[4]; [36],0
same,"Plant response rating, Surinam grass",[5]; [32],0
same,"Plant response rating, Surinam grass",[5]; [36],0
same,"Plant response rating, Morningglory",[6]; [32],0
same,"Plant response rating, Velvetleaf",[7]; [32],0
same,"Plant response rating, Rice",rice (Oryza saliva) [8]; [32],0
same,"Plant response rating, Crabgrass",[9]; [32],100
same,"Plant response rating, Crabgrass",[9]; [36],0
same,"Plant response rating, Pigweed",[10]; [32],100
same,"Plant response rating, Barnyardgrass",[11]; [32],60
same,"Plant response rating, Barnyardgrass",[11]; [36],0
same,"Plant response rating, Ducksalad",[16],0
same,"Plant response rating, Rice",rice (Oryza saliva) [17],0
same,"Plant response rating, Flatsedge",[18],100
same,"Plant response rating, Barnyardgrass",[19],60
same,"Plant response rating, Blackgrass",[20]; [34],0
same,"Plant response rating, Blackgrass",[20]; [35],0
same,"Plant response rating, Foxtail, Giant",[21]; [34],0
same,"Plant response rating, Foxtail, Giant",[21]; [35],0
same,"Plant response rating, Cocklebur",[22]; [34],40
same,"Plant response rating, Cocklebur",[22]; [35],40
same,"Plant response rating, Corn",corn (Zea mays) [23]; [34],0
same,"Plant response rating, Corn",corn (Zea mays) [23]; [35],0
same,"Plant response rating, Wheat",[24]; [34],0
same,"Plant response rating, Wheat",[24]; [35],0
same,"Plant response rating, Lambsquarters",[25]; [34],0
same,"Plant response rating, Lambsquarters",[25]; [35],80
same,"Plant response rating, Wild Oat",wild oat (Avena fatua); [34],0
same,"Plant response rating, Wild Oat",wild oat (Avena fatua); [35],0
same,"Plant response rating, Surinam grass",[26]; [34],0
same,"Plant response rating, Surinam grass",[26]; [35],0
same,"Plant response rating, Morningglory",[27]; [34],0
same,"Plant response rating, Morningglory",[27]; [35],20
same,"Plant response rating, Velvetleaf",[28]; [34],0
same,"Plant response rating, Velvetleaf",[28]; [35],0
same,"Plant response rating, Crabgrass",[29]; [34],0
same,"Plant response rating, Crabgrass",[29]; [35],0
same,"Plant response rating, Pigweed",[30]; [34],90
same,"Plant response rating, Pigweed",[30]; [35],90
same,"Plant response rating, Barnyardgrass",[31]; [34],0
same,"Plant response rating, Barnyardgrass",[31]; [35],40
